The values that follow come from PMC6315362, “Cytotoxic Potential of the Novel Horseshoe Crab Peptide Polyphemusin III” (Marine Drugs, 2018).

Molecules are shown by their SMILES. Where a SMILES comes first, the peptide text is derived from it. Bridges are numbered along the chain shown (N, C = ends).

In assay [1] the test system is A549 (human lung carcinoma cells). In kind it is cell-based. The settings on record: MTT after 48 h, DMEM/F12 with 10% FBS, mean ± SD of at least three independent experiments. The protocol: (§1) Cytotoxic activities of PM III, its isoforms, and tachyplesins against seven human cell lines were evaluated. Four cancer (HL-60 acute promyelocytic leukemia, HeLa cervix adenocarcinoma, SK-BR-3 breast adenocarcinoma, A549 lung carcinoma), one transformed (HEK 293T transformed human embryonic kidney), and two normal human cell lines (HEF human embryonic fibroblasts and NHA normal human astrocytes) were used for these experiments. Cytotoxicity was measured by incubating the cells with serial dilutions of PM I, PM II, PM III, TP I, TP II, or TP III samples followed by MTT assay after 48 h. The half-maximal inhibitory concentrations (IC50) were measured as the peptide concentration at which cell viability was reduced by 50% in comparison to untreated cells (Table 3).
The following tumor and transformed cell lines were used in this study: HL-60 (acute promyelocytic leukemia), HeLa (human cervix adenocarcinoma cells), SK-BR-3 (human breast adenocarcinoma cells), A549 (human lung carcinoma cells), HEK 293T (transformed human embryonic kidney cells), HEF (human embryonic fibroblasts), and NHA (normal human astrocytes) were used as normal cell lines. Tumor and transformed cell lines were obtained from the American Type Culture Collection (ATCC; www.atcc.org). Primary cells HEF (normal human embryonic fibroblasts derived from human embryonic stem cells) and NHA (normal human astrocytes derived from human fetal brain tissue) were obtained and cultured according to the corresponding protocol. Briefly, cells were cultured in DMEM/F12 (1:1) or RPMI-1640 medium containing 10% fetal bovine serum (Invitrogen, USA) at 37 °C in the atmosphere containing 5% CO2 and 95% air according to standard mammalian tissue culture protocols and using a sterile technique. All cell lines were tested by using the LookOut® Mycoplasma PCR Detection Kit (Sigma-Aldrich, St. Louis, MO, USA) according to the manufacturer’s protocol and found to be free of Mycoplasma infection.
The colorimetric 3-(4,5-dimethylthiazol-2-yl)-2,5-diphenyltetrazolium bromide (MTT) dye reduction assay was used to determine the cytotoxicity of the polyphemusins and tachyplesins. Cells (3 × 10^3–6 × 10^3 per well) were placed into 96-well plates in Dulbecco’s modified Eagle’s medium (DMEM/F12) supplemented with 10% fetal bovine serum (FBS). After incubation in the atmosphere containing 5% CO2 and 95% air at 37 °C overnight, the media were discarded, and polyphemusins or tachyplesins solutions were added to the cell cultures up to final concentrations of 2.5, 5, 10, 25, and 50 μM in a final volume of 0.1 mL DMEM/F12 with 10% FBS. HL-60 cells (4 × 10^4 in 50 μL) were added to two-time serial dilutions of polyphemusins solutions at a final concentration of 1.25, 2.5, 5, 10, 25, and 50 μM in 50 μL RPMI-1640 with 10% FBS. 48 hours later, 20 μL of MTT (5 mg/mL) was added into each well and the plates were incubated for 3 h at 37 °C. The plates with HL-60 cells were centrifuged for 10 min at 300 g. The media were discarded and 0.1 mL of dimethyl sulfoxide and isopropanol mixture at a ratio of 1:1 (v/v) was added to each well to dissolve the crystallized formazan. The absorbance at 570 nm was measured by a microplate reader (Eppendorf, Hamburg, Germany).

The subject of assay [2] is Gram-negative and Gram-positive bacteria. The settings on record: natural and synthetic peptides; cited from earlier work. The protocol: Our experimental data for the obtained recombinant PM I are in line with those obtained earlier for synthetic PM I against Gram-negative and Gram-positive bacteria (with reported MICs not exceeding 1 μM).
Another assay deals with human cell lines. Put plainly: MTT cytotoxic activity assay, IC50 summarised over cell lines. The settings on record: all human cells tested; MTT 48 h; read-out: IC50 range on human cancer, transformed, and normal cell lines. The format is cell-based. How it is done:
as §1
The colorimetric 3-(4,5-dimethylthiazol-2-yl)-2,5-diphenyltetrazolium bromide (MTT) dye reduction assay was used to determine the cytotoxicity of the polyphemusins and tachyplesins. Cells (3 × 10^3–6 × 10^3 per well) were placed into 96-well plates in Dulbecco’s modified Eagle’s medium (DMEM/F12) supplemented with 10% fetal bovine serum (FBS). […] The absorbance at 570 nm was measured by a microplate reader (Eppendorf, Hamburg, Germany).
For orientation: Tetrazolium assays rely on reduction of a dye to a coloured formazan, in cell work by metabolically active cells.

Another assay concerns HL-60 cells. Nature of the assay: Annexin V-FITC/propidium iodide double staining and flow cytometry. The format is cell-based, human. Conditions: for double-stained cells, Q2-2 (AV+PI+, late apoptotic/necrotic): 4 h. The source says: To further investigate the effect of PM III on human cells, we performed annexin V-FITC/propidium iodide double staining with subsequent flow cytometric analysis. Annexin V-FITC binds to phosphatidylserine, which is exposed on the outer leaflet of the cellular plasma membrane at the initial stages of apoptosis, whereas propidium iodide (PI) preferentially stains nuclei of dead cells. Therefore, a combination of annexin V-FITC and PI assays allows differentiation between early apoptotic and late apoptotic/necrotic cell populations. PM III was used at two final concentrations of 2.5 and 5 μM. In order to elucidate the predominant mechanism of the PM III action, we applied a widely used caspase inhibitor, Z-VAD-FMK [23].
Cell death analysis with fluorescein isothiocyanate conjugated annexin V (annexin V-FITC)/propidium iodide double staining and dead cells counting with flow cytometry were performed 4 h after addition of polyphemusin III up to a final concentration of 2.5 or 5 μM. The Annexin V-FITC Apoptosis Detection Kit (BD Biosciences, Franklin Lakes, NJ, USA) was used according to the manufacturer’s protocol on a NovoCyte flow cytometer (ACEA Biosciences, San Diego, CA, USA). Each experiment was performed in triplicate. The apoptosis inducer camptothecin (Sigma-Aldrich, St. Louis, MO, USA) and the general caspase inhibitor, Z-VAD-FMK (BD Biosciences, Franklin Lakes, NJ, USA), were used. All flow cytometry experiments were performed twice.
For orientation: Flow cytometry measures light scatter and fluorescence of single cells or particles in a stream.

As for `CC(C)[C@@H]1NC(=O)[C@H](CCCNC(=N)N)NC(=O)[C@H](Cc2ccccc2)NC(=O)[C@@H](NC(=O)[C@H](Cc2c[nH]c3ccccc23)NC(=O)[C@H](CCCNC(=N)N)NC(=O)[C@@H](N)CCCNC(=N)N)CSSC[C@@H](C(=O)N[C@@H](CCCNC(=N)N)C(=O)O)NC(=O)[C@H](CCCCN)NC(=O)[C@H](CCCNC(=N)N)NC(=O)[C@H](Cc2ccc(O)cc2)NC(=O)[C@@H]2CSSC[C@H](NC1=O)C(=O)N[C@@H](Cc1ccc(O)cc1)C(=O)N[C@@H](CCCNC(=N)N)C(=O)NCC(=O)N[C@@H](Cc1ccccc1)C(=O)N2` [PM I, polyphemusin I] (H-RRWCFRVCYRGFCYRKCR-OH; disulfide 4-17, 8-13 (inferred); N-terminus assumed), in assay [1], the IC50 stood at 8.8 ± 1.3 µM. The MICs result in assay [2] was “exceeding 1 μM”.
Turning to `CC(C)[C@@H]1NC(=O)[C@H](CCCNC(=N)N)NC(=O)[C@H](Cc2ccccc2)NC(=O)[C@@H](NC(=O)[C@H](Cc2c[nH]c3ccccc23)NC(=O)[C@H](CCCNC(=N)N)NC(=O)[C@@H](N)CCCNC(=N)N)CSSC[C@@H](C(=O)N[C@@H](CCCNC(=N)N)C(=O)O)NC(=O)[C@H](CCCCN)NC(=O)[C@H](CCCNC(=N)N)NC(=O)[C@H](Cc2ccc(O)cc2)NC(=O)[C@@H]2CSSC[C@H](NC1=O)C(=O)N[C@@H](Cc1ccc(O)cc1)C(=O)N[C@@H](CCCCN)C(=O)NCC(=O)N[C@@H](Cc1ccccc1)C(=O)N2` [PM II, polyphemusin II] (H-RRWCFRVCYKGFCYRKCR-OH; disulfide 4-17, 8-13 (inferred); N-terminus assumed), 10.8 ± 1.9 µM corresponded to half-maximal inhibition in assay [1] (IC50). In assay [2], the MICs result is recorded as “exceeding 1 μM”.
As for `CC(C)[C@@H]1NC(=O)[C@H](CCCNC(=N)N)NC(=O)[C@H](Cc2ccccc2)NC(=O)[C@@H](NC(=O)CNC(=O)[C@H](CCCNC(=N)N)NC(=O)[C@@H](N)CCCNC(=N)N)CSSC[C@@H](C(=O)N[C@@H](CCCNC(=N)N)C(=O)O)NC(=O)[C@H](CCCNC(=N)N)NC(=O)[C@H](CCC(N)=O)NC(=O)[C@H](Cc2ccccc2)NC(=O)[C@@H]2CSSC[C@H](NC1=O)C(=O)N[C@@H](Cc1ccc(O)cc1)C(=O)N[C@@H](CCCNC(=N)N)C(=O)NCC(=O)N[C@@H](Cc1ccccc1)C(=O)N2` [PM III, polyphemusin III] (H-RRGCFRVCYRGFCFQRCR-OH; disulfide 4-17, 8-13 (inferred); N-terminus assumed), in the assay with human cell lines, the IC50 is less than 10 µM. The “double-stained cells, Q2-2 (AV+PI+, late apoptotic/necrotic)” value with HL-60 cells (HL-60, 2.5 µM, 50 μM Z-VAD-FMK added) is on record as more than 30%; in the assay on HL-60 cells (HL-60, 2.5 µM, no Z-VAD-FMK), more than 40%; with HL-60 cells (HL-60, 5 µM, 50 μM Z-VAD-FMK added), more than 70%; in the assay with HL-60 cells (HL-60, 5 µM, no Z-VAD-FMK) it was more than 80%. Moreover, the “influence of the caspase inhibitor Z-VAD-FMK on the effect of the substance (annexin V-FITC/PI staining)” value in the assay on HL-60 cells (HL-60, 4 h of incubation, 50 μM Z-VAD-FMK) is on record as “almost not affected”.
In assay [1], `CC[C@H](C)[C@@H]1NC(=O)CNC(=O)[C@H](CCCNC(=N)N)NC(=O)[C@H](Cc2ccc(O)cc2)NC(=O)[C@@H]2CSSC[C@H](NC1=O)C(=O)N[C@@H](Cc1ccc(O)cc1)C(=O)N[C@@H](CCCNC(=N)N)C(=O)N[C@@H](CCCNC(=N)N)C(=O)N[C@H](C(=O)N[C@@H](CCCNC(=N)N)C(=O)O)CSSC[C@H](NC(=O)[C@H](Cc1c[nH]c3ccccc13)NC(=O)[C@@H](N)CCCCN)C(=O)N[C@@H](Cc1ccccc1)C(=O)N[C@@H](CCCNC(=N)N)C(=O)N[C@@H](C(C)C)C(=O)N2` [TP I, tachyplesin I] (H-KWCFRVCYRGICYRRCR-OH; disulfide 3-16, 7-12 (inferred); N-terminus assumed) yielded an IC50 of 26.5 ± 1.2 µM. For the same molecule, the MICs entry in assay [2] is given as “exceeding 1 μM”.
The molecule `CC[C@H](C)[C@@H]1NC(=O)CNC(=O)[C@H](CCCNC(=N)N)NC(=O)[C@H](Cc2ccc(O)cc2)NC(=O)[C@@H]2CSSC[C@H](NC1=O)C(=O)N[C@@H](Cc1ccc(O)cc1)C(=O)N[C@@H](CCCNC(=N)N)C(=O)N[C@@H](CCCCN)C(=O)N[C@H](C(=O)N[C@@H](CCCNC(=N)N)C(=O)O)CSSC[C@H](NC(=O)[C@H](Cc1c[nH]c3ccccc13)NC(=O)[C@@H](N)CCCNC(=N)N)C(=O)N[C@@H](Cc1ccccc1)C(=O)N[C@@H](CCCNC(=N)N)C(=O)N[C@@H](C(C)C)C(=O)N2` [TP II, tachyplesin II] (H-RWCFRVCYRGICYRKCR-OH; disulfide 3-16, 7-12 (inferred); N-terminus assumed) yielded a half-inhibitory concentration (IC50) in assay [1] of 28.1 ± 1.7 µM. For the same molecule, the MICs entry in assay [2] was “exceeding 1 μM”.
In assay [1], `CC[C@H](C)[C@@H]1NC(=O)CNC(=O)[C@H](CCCNC(=N)N)NC(=O)[C@H](Cc2ccc(O)cc2)NC(=O)[C@@H]2CSSC[C@H](NC1=O)C(=O)N[C@@H](Cc1ccc(O)cc1)C(=O)N[C@@H](CCCNC(=N)N)C(=O)N[C@@H](CCCCN)C(=O)N[C@H](C(=O)N[C@@H](CCCNC(=N)N)C(=O)O)CSSC[C@H](NC(=O)[C@H](Cc1c[nH]c3ccccc13)NC(=O)[C@@H](N)CCCCN)C(=O)N[C@@H](Cc1ccccc1)C(=O)N[C@@H](CCCNC(=N)N)C(=O)N[C@@H](C(C)C)C(=O)N2` [TP III, tachyplesin III] (H-KWCFRVCYRGICYRKCR-OH; disulfide 3-16, 7-12 (inferred); N-terminus assumed) showed an IC50 of 15.3 ± 1 µM.

For orientation: IC50 means the concentration at which inhibition is half-maximal.
